Measurements as given in US8772321B2, “Heteroannelated anthraquinone derivatives for inhibiting cancers” (National Defense Medical Center, priority 2008, dated 2014).
Where a SMILES comes first, the peptide text is derived from it. The star is where a group is joined. Cbz = O=C(OCc1ccccc1)*

How the values were obtained:
Type in all cases: cell-based, human
HeLa cells [1] = experiment: DNA damage, immunoblot of γ-phosphorylation of histone H2A.X; conditions: various doses, 12 hour
Method: The anthracyclin antibiotic agent doxorubicin (DXR) is an active cytotoxic reagent with a wide range of clinical indications, including treatment of solid tumors in the ovary, breast, and gastrointestinal systems, as well as treatment of liquid tumors such as leukemia. […] Specifically, HeLa cells were treated with NSC745885 at various doses for 12 hour. The phosphorylation of γ-H2A.X was subsequently detected by the immunoblot.
(§1) Cell lysates were prepared in lysis buffer (100 mM Tris-HCl pH 8.0, 150 mM NaCl, 0.1% SDS, and 1% Triton 100) at 4° C., separated by sodium dodecyl sulfate-polyacrylamide gel electrophoresis (SDS-PAGE), and then transferred onto a polyvinylidine difluoride membrane (Millipore, USA). Proteins were detected using antibodies against alpha actinin (ACTN), proliferating cell nuclear antigen (PCNA), p53, p21, cyclin B1, and cyclin D1 (Santa Cruz Biotechnology, USA), YH2A.X (EP854(2)Y, Epitomics, USA), cleaved caspase 3, cleaved poly(ADP-ribose) polymerase (PARP) and LC3B-II (Cell signaling, USA).

[2] = system: p53-dependent reporter (pG13-LUC); experiment: p53-dependent reporter (pG13-LUC) luciferase assay; conditions: HeLa cells co-transfected with Zac1 expression vector
Method: (§2) HeLa and HeLa/shp53 cells were grown in DMEM supplemented with 10% charcoal/dextran-treated fetal bovine serum. Cells in a 24-well plate were transfected with jetPEI (PolyPlus-transfection, France) according to the manufacturer's protocol; total DNA was adjusted to 1.0 μg by the addition of empty vector DNA. Luciferase assays were performed using the Promega Luciferase Assay kit, and the measurement was expressed numerically as relative light units (RLU). Luciferase activities were presented as means and standard deviation of two transfected sets. […] Instead, the reproducibility of the observed effects on luciferase activity was determined in multiple independent transfection experiments.
HeLa cells infected with human papillomavirus and expressing the E6 oncoprotein, which maintains endogenous wild-type p53 at a very low concentration, are used as a model system for studying human cervical tumorigenesis. In order for us to confirm the effects of DXR and NSC745885 on endogenous p53, HeLa cells were transiently transfected with a p53-dependent reporter (pG13-LUC) (FIG. 7A) and a p21 promoter reporter (p21-LUC) (FIG. 7B), along with an expression vector for a well-known p53 activator (Zac1).

HeLa cells [3] = experiment: Cell cycle profile by FACS
From the text: Cell cycle arrest is an important damage surveillance mechanism. […] Treating the cells with NSC745885 caused 47-58% of cells to arrest in sub-G1, which is indicative of cell death. This effect was dose- and time-dependent (FIG. 3, Panel B).

HeLa cells [4] = experiment: Apoptosis: cleaved PARP and caspase 3 immunoblot, DNA fragmentation gel; conditions: various doses, 16 hours
Method: It is well noted that DXR can induce cardiomyocyte death by apoptosis and necrosis. DXR is also involved in other types of cellular processes, such as autophagy and senescence/aging. To investigate induction of apoptosis caused by NSC745885, we adopted DXR as a positive control and examined the levels of cleaved PARP and caspase 3 as apoptotic indicators using immunoblot (FIG. 4A), as well as DNA fragmentation using agarose gel electrophoresis (FIG. 4B). HeLa cells were treated with either DXR or NSC745885 at various doses for 16 hours. Subsequently, the total cellular protein was extracted and immunoblotted with antibodies against the cleaved types of PARP and caspase 3. Additionally, genomic DNA was isolated and analyzed by 2% agarose gel electrophoresis followed by ethidium bromide staining. The results (FIG. 4A and FIG. 4B) are representative of three independent experiments. […] Treatment with NSC745885 decreased protein stability, an effect that appeared to be selective, and was confirmed in other immunoblot analyses (shown in FIG. 6A, lanes 1 and 6).
as §1

HeLa cells [5] = experiment: Autophagosome formation, GFP-LC3 fluorescence microscopy; conditions: HeLa cells transfected with GFP-LC3; 2.5 μM NSC745885, 12 hours
Method: In FIG. 5B, HeLa cells were transfected with 0.25 μg of an expression vector for GFP-LC3 for 24 hours and then treated with 2.5 μM NSC745885 for 12 hours. […] Vehicle (DMSO) and spermidine (Spd) were used as a negative and positive control, respectively.
(§3) In FIGS. 5C and 5D, HeLa cells were incubated with 2.5 μM NSC745885 for 24 hours. After 48 hours, cells were subjected to SA-β-galactosidase staining (FIG. 5C) and approximately 100 stained cells were quantified (*P<0.05; ** P<0.01; *** P<0.005). NSC745885 induced senescence at a rate of 25% (P=0.0085 compared to DMSO). (FIG. 5D) LC3B-I fragments were observed when the cells were exposed to the drug for longer period of time (FIG. 5A, panel labeled as LE). […] We also treated Hela cells with the autophagy inducer spermidine (Spd) and vehicle (DMSO), which act as the positive and the negative control, respectively.

HeLa cells [6] = experiment: Autophagy: LC3B-II immunoblot; conditions: 12 hours
Method: as §1
Altered intracellular localization of LC3B (LC3B-I) and increased electrophoretic mobility of LC3B (LC3B-II) are correlated with recruitment to autophagic membranes and can be used as molecular markers for autophagic activation.
In FIG. 5A, HeLa cells were treated with the indicated concentrations of DXR, NSC745885 for 12 hours, and then cell lysates were analyzed by immunoblot using antibodies directed against LC3. The results are representative of three independent experiments.

HeLa cells [7] = experiment: Senescence-associated β-galactosidase staining; conditions: DXR at low concentrations
Method: Cultured cells were washed in PBS (pH 7.4), incubated in a solution of 2% formaldehyde/0.2% glutaraldehyde, and then incubated overnight at 37° C. in freshly prepared staining solution consisting of 1 mg/mL X-gal (5-bromo-4-chloro-3-indolyl-β-D-galactoside), 5 mM K3Fe(CN)6, 5 mM K4Fe(CN)6, 150 mM NaCl and 2 mM MgCl2 in 40 mM citric acid/sodium phosphate, pH 6.0. Following this incubation, cells were washed with water and examined by light microscopy at 200× magnification.
as §3

HeLa/shp53 cells = experiment: MTT cell viability assay, HeLa vs HeLa/shp53; conditions: endogenous p53 silenced; 24, 48, 72 hours
Method: as §2
To understand the functional role that endogenous p53 plays in the cytotoxic effects of DXR and NSC745885, we measured cell viability of HeLa or HeLa/shp53 cells using MTT cell viability assay. In this assay, endogenous p53 is silenced, both in the presence or absence of the drugs (FIG. 8). […]

p53 and p21 = p53 and p21 protein expression, immunoblot; conditions: HeLa cells, MG132 1 uM or 10 uM added 3 hours before harvesting; only at lower concentrations of NSC745885
Method: as §1
Cell cycle regulatory protein p21 is one of p53's targets. […] In this experiment, HeLa cells were treated with the indicated concentrations of DXR or NSC745885 for 12 hours and then assessed by immunoblot (FIG. 6A) and RT-PCR (FIG. 6B).
In FIG. 6C, HeLa cells were treated with the indicated concentrations of NSC745885 for 12 hours; proteasome inhibitor MG132 (1 uM or 10 uM) was added 3 hours before harvesting. Cell protein extracts were tested with anti-p53 and anti-p21 antibodies. The results are representative of two independent experiments.

## COc1cccc2c1C(=O)c1c(O)c3c(c(O)c1C2=O)C[C@@](O)(C(=O)CO)C[C@@H]3O[C@H]1C[C@H](N)[C@H](O)[C@H](C)O1 [DXR, doxorubicin, reference compound]
HeLa cells [1]
  DNA damage (phosphorylation of γ-H2A.X, immunoblot): strongly induced DNA damage
[2]
  Zac1-induced p53-dependent reporter activity: inhibited Zac1-induced activity
HeLa cells [3]
  cell cycle arrest: cell cycle arrest in S phase
HeLa cells [4]
  induction of apoptosis (cleaved PARP, caspase 3, DNA fragmentation): strongly induced
HeLa cells [5]
  autophagosome formation (LC3 aggregation, GFP-LC3): autophagosome formation
HeLa cells [6]
  LC3B-II fragment formation (autophagic activation): LC3B-II fragment formation
HeLa cells [7]
  senescence rate (SA-β-galactosidase staining): 73%
HeLa/shp53 cells
  sensitivity (cell viability, MTT) in HeLa/shp53 versus HeLa cells: dependent on endogenous p53 for cell killing

## CC(C)C[C@@H](C=O)NC(=O)[C@H](CC(C)C)NC(=O)[C@H](CC(C)C)NC(=O)OCc1ccccc1 [MG132, reference compound] (Cbz-Leu-Leu-Leu-aldehyde)
p53 and p21
  effect of MG132 on p53 and p21 degradation by NSC745885: attenuate the degradation of p53 and p21
